In US10544149B2, “Bicyclic alkyne derivatives and uses thereof” (Agency for Science, Technology and Research, priority 2013, dated 2020) one finds melting point and IC50 data, which are given here for 28 compounds.

The target of one data set is MNK1 (Homo sapiens, UniProt Q9BUB5). Nature of the data set: MNK1 enzymatic assay. In kind it is biochemical.
The target in the next data set is MNK2 (Homo sapiens, UniProt Q9HBH9). Nature of the data set: MNK2 enzymatic assay. In kind it is biochemical.
For data set [1], the system named is eIF4e phosphorylation in Hela cell line. In words: eIF4e phosphorylation inhibition in Hela cell line. In kind it is cell-based. As to conditions: Homo sapiens, cellular.

Counter-ions that a name gives are not always drawn.

Sequence of MNK2 (Q9HBH9 whole entry): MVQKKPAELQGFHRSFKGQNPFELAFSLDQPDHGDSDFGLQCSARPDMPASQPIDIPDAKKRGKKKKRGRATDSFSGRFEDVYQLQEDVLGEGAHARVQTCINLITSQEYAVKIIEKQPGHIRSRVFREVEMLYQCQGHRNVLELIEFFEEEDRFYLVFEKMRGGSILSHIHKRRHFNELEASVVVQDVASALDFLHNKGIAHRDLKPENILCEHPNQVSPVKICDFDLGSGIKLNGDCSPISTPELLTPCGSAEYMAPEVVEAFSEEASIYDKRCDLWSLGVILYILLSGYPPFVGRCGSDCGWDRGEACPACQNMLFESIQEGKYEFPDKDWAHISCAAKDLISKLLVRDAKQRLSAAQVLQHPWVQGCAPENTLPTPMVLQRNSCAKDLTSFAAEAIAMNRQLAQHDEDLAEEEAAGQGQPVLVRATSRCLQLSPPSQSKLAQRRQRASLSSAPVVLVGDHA
Sequence of MNK1 (Q9BUB5 whole entry): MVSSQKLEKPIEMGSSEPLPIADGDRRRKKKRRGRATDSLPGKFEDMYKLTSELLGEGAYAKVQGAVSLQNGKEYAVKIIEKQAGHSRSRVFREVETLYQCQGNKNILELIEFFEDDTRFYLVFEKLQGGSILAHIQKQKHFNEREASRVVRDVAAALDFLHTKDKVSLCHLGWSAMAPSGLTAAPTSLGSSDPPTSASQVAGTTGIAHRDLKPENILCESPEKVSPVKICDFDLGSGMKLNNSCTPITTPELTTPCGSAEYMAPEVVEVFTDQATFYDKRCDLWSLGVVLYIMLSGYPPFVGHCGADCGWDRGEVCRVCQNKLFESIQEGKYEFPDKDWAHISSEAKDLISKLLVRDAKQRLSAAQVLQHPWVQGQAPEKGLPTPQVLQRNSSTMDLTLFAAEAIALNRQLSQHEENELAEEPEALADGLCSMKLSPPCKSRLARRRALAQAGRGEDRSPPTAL

Compound `Nc1cc(C#Cc2cnc3ccc(-c4ccc(C(=O)N5CCOCC5)cc4F)nn23)ccn1` (as salt: salt) [Example 122, (4-(3-((2-aminopyridin-4-yl)ethynyl)imidazo[1,2-b]pyridazin-6-yl)-3-fluorophenyl)(morpholino)methanone formate salt] returned a melting point of 78.2 to 79.4 °C.

`Nc1cc(C#Cc2cnn3ccc(-c4ccc(C(=O)N5CCOCC5)cc4F)nc23)ccn1` (as salt: salt) [Example 123, (4-(3-((2-aminopyridin-4-yl)ethynyl)pyrazolo[1,5-a]pyrimidin-5-yl)-3-fluorophenyl)(morpholino) methanone formic acid salt] gave a melting point of 57.6 to 58.9 °C.

`CN1CCN(C(=O)c2ccc(-c3ccc4ncc(C#Cc5ccnc(N)c5)n4n3)cc2)CC1` [Example 76, (4-(3-((2-aminopyridin-4-yl)ethynyl)imidazo[1,2-b]pyridazin-6-yl)phenyl)(4-methylpiperazin-1-yl)methanone]: the melting point lay in the range of 120 to 122 °C.

On to `CN1CCN(C(=O)c2ccc(-c3ccc4ncc(C#Cc5ccnc(N)c5)n4n3)cc2)CC1=O` [Example 77, 4-(4-(3-((2-aminopyridin-4-yl)ethynyl)imidazo[1,2-b]pyridazin-6-yl)benzoyl)-1-methylpiperazin-2-one], for which the melting point is 193.6 to 194.6 °C.

For the compound `Nc1cc(C#Cc2cnc3ccc(-c4ccc(C(=O)N5CCOCC5)c(Cl)c4)nn23)ccn1` [Example 82, (4-(3-((2-aminopyridin-4-yl)ethynyl)imidazo[1,2-b]pyridazin-6-yl)-2-chlorophenyl)(morpholino)methanone], the melting point lay in the range of 193.7 to 194.8 °C.

Consider `Nc1cc(C#Cc2cnc3ccc(-c4ccc(C(=O)N5CCOCC5)c(C(F)(F)F)c4)nn23)ccn1` [Example 83, (4-(3-((2-aminopyridin-4-yl)ethynyl)imidazo[1,2-b]pyridazin-6-yl)-2-(trifluoromethyl)phenyl) (morpholino)methanone], for which the melting point lay in the range of 258.5 to 258.9 °C.

Regarding `CC(=O)Nc1cc(C#Cc2cnc3ccc(-c4ccc(C(=O)N5CCN(C)C(=O)C5)cc4)nn23)ccn1` [Example 84, N-(4-((6-(4-(4-methyl-3-oxopiperazine-1-carbonyl)phenyl)imidazo[1,2-b]pyridazin-3-yl)ethynyl)pyridin-2-yl)acetamide], the melting point was 258.2 to 259.5 °C.

`CN1CCN(C(=O)c2ccc(-c3ccc4ncc(C#Cc5ccnc6[nH]ccc56)n4n3)cc2)CC1=O` [Example 85, 4-(4-(3-((1H-pyrrolo[2,3-b]pyridin-4-yl)ethynyl)imidazo[1,2-b]pyridazin-6-yl)benzoyl)-1-methylpiperazin-2-one] displayed a melting point of 207.2 to 208.2 °C.

`CC(=O)Nc1cc(C#Cc2cnc3ccc(-c4ccc(C(=O)N5CCN(C)CC5)cc4)nn23)ccn1` [Example 87, N-(4-((6-(4-(4-methylpiperazine-1-carbonyl)phenyl)imidazo[1,2-b]pyridazin-3-yl)ethynyl)pyridin-2-yl)acetamide]: the melting point was in the range of 216.8 to 217.9 °C.

`Nc1cc(C#Cc2cnc3cnc(-c4ccc(C(=O)N5CCOCC5)cc4)cn23)ccn1` [Example 88, (4-(3-((2-aminopyridin-4-yl)ethynyl)imidazo[1,2-a]pyrazin-6-yl)phenyl)(morpholino)methanone] returned a melting point of 143.5 to 144.2 °C.

The compound `O=C(c1ccc(-c2cn3c(C#Cc4ccnc5[nH]ncc45)cnc3cn2)cc1)N1CCOCC1` [Example 90, (4-(3-((1H-pyrazolo[3,4-b]pyridin-4-yl)ethynyl)imidazo[1,2-a]pyrazin-6-yl)phenyl) (morpholino)methanone] displayed a melting point of 192.8 to 193.8 °C.

As for `Nc1cc(C#Cc2cnc3cnc(-c4ccc(C(=O)N5CCOCC5)c(Cl)c4)cn23)ccn1` [Example 93, (4-(3-((2-aminopyridin-4-yl)ethynyl)imidazo[1,2-a]pyrazin-6-yl)-2-chlorophenyl) (morpholino)methanone], the melting point fell in the range of 119.8 to 121.1 °C.

As to `O=C(c1ccc(-c2ccc3ncc(C#Cc4ccncc4)n3c2)cc1)N1CCOCC1` [Example 94, morpholino(4-(3-(pyridin-4-ylethynyl)imidazo[1,2-a]pyridin-6-yl)phenyl)methanone], the melting point lay in the range of 165 to 166 °C.

`Cc1cnccc1C#Cc1cnc2ccc(-c3ccc(C(=O)N4CCOCC4)cc3)cn12` [Example 95, (4-(3-((3-methylpyridin-4-yl)ethynyl)imidazo[1,2-a]pyridin-6-yl)phenyl) (morpholino)methanone] returned a melting point of 99 to 104 °C.

`Nc1cc(C#Cc2cnc3ccc(-c4ccc(C(=O)N5CCOCC5)cc4)cn23)ccn1` [Example 96, (4-(3-((2-aminopyridin-4-yl)ethynyl)imidazo[1,2-a]pyridin-6-yl)phenyl)(morpholino)methanone] came in with a melting point of 133 to 138 °C.

For the compound `CC(=O)Nc1cc(C#Cc2cnc3ccc(-c4ccc(C(=O)N5CCNCC5)cc4)cn23)ccn1` [Example 101, N-(4-((6-(4-(piperazine-1-carbonyl)phenyl)imidazo[1,2-a]pyridin-3-yl)ethynyl)pyridin-2-yl)acetamide], the IC50 is below 0.5 µM at MNK1, below 0.5 µM on MNK2 and below 5 µM in data set [1].

Regarding `Cc1c(N)cccc1Nc1cc(C#Cc2cnc3ccc(-c4ccc(C(=O)N5CCNCC5)cc4)cn23)ccn1` [Example 102, (4-(3-((2-(3-amino-2-methylphenylamino)pyridin-4-yl)ethynyl)imidazo[1,2-a]pyridin-6-yl)phenyl) (piperazin-1-yl)methanone], the IC50 against MNK1 was below 0.5 µM; at MNK2 it was below 0.5 µM; in data set [1], below 5 µM.

On to `O=C(Nc1cc(C#Cc2cnc3ccc(-c4ccc(C(=O)N5CCNCC5)cc4)cn23)ccn1)c1ccccc1` [Example 103, (N-(4-((6-(4-(piperazine-1-carbonyl)phenyl)imidazo[1,2-a]pyridin-3-yl)ethynyl)pyridin-2-yl)benzamide)], for which the IC50 against MNK1 was below 0.5 µM; against MNK2, below 0.5 µM; in data set [1], below 5 µM.

Consider `O=C(c1ccc(-c2ccc3ncc(C#Cc4ccnc5[nH]ncc45)n3c2)cc1)N1CCNCC1` [Example 104, (4-(3-((1H-pyrazolo[3,4-b]pyridin-4-yl)ethynyl)imidazo[1,2-a]pyridin-6-yl)phenyl) (piperazin-1-yl)methanone], for which the IC50 was below 0.5 µM at MNK1, below 0.5 µM at MNK2 and below 5 µM in data set [1].

As to `O=C(c1ccc(-c2ccc3ncc(C#Cc4ccnc(Nc5cccnc5)c4)n3c2)cc1)N1CCNCC1` [Example 105, piperazin-1-yl(4-(3-((2-(pyridin-3-ylamino)pyridin-4-yl)ethynyl)imidazo[1,2-a]pyridin-6-yl)phenyl)methanone], the 50% inhibitory concentration (IC50) against MNK1 is below 0.5 µM; on MNK2, below 0.5 µM; in data set [1], below 5 µM.

As to `Cc1ccccc1Nc1cc(C#Cc2cnc3ccc(-c4ccc(C(=O)N5CCNCC5)cc4)cn23)ccn1` [Example 106, piperazin-1-yl(4-(3-((2-(o-tolylamino)pyridin-4-yl)ethynyl)imidazo[1,2-a]pyridin-6-yl)phenyl)methanone], the figures for the IC50 (at MNK1; against MNK2; in data set [1]) were below 0.5 µM, below 0.5 µM and below 5 µM, respectively.

Take `Cc1ncccc1Nc1cc(C#Cc2cnc3ccc(-c4ccc(C(=O)N5CCNCC5)cc4)cn23)ccn1` [Example 107, (4-(3-((2-(2-methylpyridin-3-ylamino)pyridin-4-yl)ethynyl)imidazo[1,2-a]pyridin-6-yl)phenyl)(piperazin-1-yl)methanone]: the IC50 against MNK1 was below 0.5 µM; at MNK2, below 0.5 µM; in data set [1] it was below 5 µM.

Regarding `Nc1cc(C#Cc2cnc3ccc(-c4ccc(C(=O)N5CCNCC5)cc4)cn23)ccn1` [Example 108, (4-(3-((2-aminopyridin-4-yl)ethynyl)imidazo[1,2-a]pyridin-6-yl)phenyl)(piperazin-1-yl)methanone], the IC50 was below 0.5 µM at MNK1, below 0.5 µM against MNK2 and below 5 µM in data set [1].

`O=C(c1ccc(-c2ccc3ncc(C#Cc4ccncc4)n3c2)cc1)N1CCNCC1` [Example 109, piperazin-1-yl(4-(3-(pyridin-4-ylethynyl)imidazo[1,2-a]pyridin-6-yl)phenyl)methanone] came in with a melting point of 125 to 130 °C. Further, the IC50 against MNK1 was below 0.5 µM. Moreover, on MNK2, the IC50 is below 0.5 µM. Also, the IC50 in data set [1] is below 5 µM.

Take `Nc1cc(C#Cc2cnc3ccc(-c4ccc(C(=O)N5CCNCC5)cc4)cn23)c2cc[nH]c2n1` [Example 111, (4-(3-((6-amino-1H-pyrrolo[2,3-b]pyridin-4-yl)ethynyl)imidazo[1,2-a]pyridin-6-yl)phenyl)(piperazin-1-yl)methanone]: the IC50 against MNK1 was below 0.5 µM; against MNK2 it was below 0.5 µM; in data set [1], below 5 µM.

Turning to `Nc1cc(C#Cc2cnn3ccc(-c4ccc(C(=O)N5CCOCC5)cc4)nc23)ccn1` [Example 117, (4-(3-((2-aminopyridin-4-yl)ethynyl)pyrazolo[1,5-a]pyrimidin-5 yl)phenyl)(morpholino)methanone], the melting point fell in the range of 129.8 to 130.6 °C.

Take `Nc1cc(C#Cc2cnc3ccc(-c4ccc(C(=O)N5CCOCC5)cc4F)nn23)ccn1` [Example 122, (4-(3-((2-aminopyridin-4-yl)ethynyl)imidazo[1,2-b]pyridazin-6-yl)-3-fluorophenyl)(morpholino)methanone formate salt]: the figures for the IC50 (at MNK1; at MNK2; in data set [1]) were below 0.5 µM, below 0.5 µM and below 5 µM, respectively.

On to `Nc1cc(C#Cc2cnn3ccc(-c4ccc(C(=O)N5CCOCC5)cc4F)nc23)ccn1` [Example 123, (4-(3-((2-aminopyridin-4-yl)ethynyl)pyrazolo[1,5-a]pyrimidin-5-yl)-3-fluorophenyl)(morpholino) methanone formic acid salt], for which the IC50 on MNK1 is below 0.5 µM; against MNK2, below 0.5 µM; in data set [1] it was below 5 µM.

The term melting point denotes the temperature, or range, at which the solid turns liquid. One may read the IC50 as the concentration that inhibits the measured activity by half. The low end stands for greater potency, the high end for weaker potency.
